Reference: patent US5824692A (priority 1995, dated 1998)

These molecules were tested on dopamine release, synaptosomes from the striatal area of rat brain (assay: Dopamine release from rat striatal synaptosomes). Settings: [3H]-dopamine release, relative to (S)-(-)-nicotine.
Assay type: biochemical, rat (Sprague-Dawley)
Procedure: Determination of Dopamine Release
Dopamine release was measured by preparing synaptosomes from the striatal area of rat brain obtained from Sprague-Dawley rats generally according to the procedures set forth by Nagy et al., J. Neurochem., Vol. 43, pp. 1114-1123 (1984). Striata from 4 rats were homogenized in 2 ml of 0.32M sucrose buffered with 5 mM HEPES (pH 7.5), using a glass-Teflon tissue grinder. The homogenate was diluted to 5 ml with additional homogenization solution and centrifuged at 1,000 x g for 10 min. This procedure was repeated on the new pellet and the resulting supernatant was centrifuged at 12,000 x g for 20 min. A 3 layer discontinuous Percoll gradient consisting of 16 percent, 10 percent and 7.5 percent Percoll in HEPES-buffered sucrose was made with the final pellet dispersed in the top layer. After centrifugation at 15,000 x g for 20 min., the synaptosomes were recovered above the 16 percent layer with a Pasteur pipette, diluted with 8 ml of perfusion buffer (128 mM NaCl, 2.4 mM KCl, 3.2 mM CaCl2, 1.2 mM KH2 PO4, 1.2 mM MgSO4, 25 mM HEPES pH 7.4, 10 mM dextrose, 1 mM ascorbate, 0.01 mM pargyline), and centrifuged at 15,000 x g for 20 min. The new pellet was collected and re-suspended in perfusion buffer. The synaptosome suspension was incubated for 10 min. at 37° C. [^3 H]-Dopamine (Amersham, 40-60 Ci/mmol) was added to the suspension to give a final concentration of 0.1 uM, and the suspension was incubated for another 5 min. Using this method, 30 to 90 percent of the dopamine was taken up into the synaptosomes, as determined by scintillation counting following filtration through glass fiber filters soaked with 0.5 percent polyethyleneimine. A continuous perfusion system was used to monitor release following exposure to each ligand. Synaptosomes were loaded onto glass fiber filters (Gelman type A/E). Perfusion buffer was dripped onto the filters (0.2-0.3 ml/min.) and pulled through the filters with a peristaltic pump. Synaptosomes were washed with perfusion buffer for a minimum of 20 min. before addition of the ligand. After the addition of 0.2 ml of a solution containing various concentrations of ligand, the perfusate was collected into scintillation vials at 1 min. intervals and the dopamine released was quantified by scintillation counting. Peaks of radioactivity released above background were summed and the average basal release during that time was subtracted from the total.

Structure (SMILES)	Dopamine Release Emax [% nicotine]
CNCCC#Cc1cccnc1 [Sample No. 4, N-Methyl-4-(3-pyridinyl)-3-butyne-1-amine]	87
COc1cncc(/C=C/CCN)c1 [Sample No. 3, (E)-4-[3-(5-methoxypyridin)yl]-3-butene-1-amine monofumarate]	95
CNCC/C=C/c1ccc(C)nc1 [Sample No. 6, (E)-N-methyl-4-[3-(6-methylpyrindin)yl]-3-butene-1-amine]	60
CNCC/C=C/c1cccnc1 [Sample No. C-2, (E)-metanicotine, reference compound]	80
CNCC/C=C\c1cccnc1 [Sample No. 5, (Z)-metanicotine]	88
CN1CCC[C@H]1c1cccnc1 [Sample No. C-1, (S)-(-)-nicotine, reference compound]	100
CNCC/C=C/c1cncnc1 [Sample No. 2, (E)-N-methyl-4-(5-pyrimidinyl)-3-butene-1-amine]	77
NCC/C=C/c1cncnc1.O=C(O)/C=C/C(=O)O [Sample No. 1, (E)-4-(5-pyrimidinyl)-3-butene-1-amine monofumarate]	113
